Laboratory results reported in patent US20220380331A1, “TREATMENT OF CONDITIONS OF THE NERVOUS SYSTEM” (priority 2019, published 2022).

Experiments:
[1] = system: PNN-HEK293 cells; assay: Immunocytochemistry of PNN formation (WFA) with PNNi analogues; format: cell-based, human; conditions: 0.5 mM and 1 mM, 3 days in vitro
Procedure: To compare the efficacy of PNNi, JD009, and JD013 in reducing PNN formation, immunocytochemistry was conducted using the N-acetylgalactosamine-binding lectin WFA to label PNNs. PNN-HEK293 cells were exposed to 0.5 mM and 1 mM of the compounds for 3 days in vitro. […] Quantification of WFA fluorescence intensity per cell was derived in matched regions of interest (ROI) and normalising overall WFA fluorescence intensity to cell number.

[2] = Solubility in aqueous solution; format: physicochemical
Excerpt: The inventors hypothesised that since the hydroxyl functional groups required for activity were not altered when designing the PNNi analogues, they should retain the capacity to potently reduce PNNs.

Row | SMILES | PNN morphology and expression (WFA fluorescence intensity per cell) [1] | solubility relative to PNNi [2]
1 | CN(C)Cc1cc(=O)oc2cc(O)ccc12 [JD009] | altered PNN expression | increased solubility
2 | O=c1cc(CN2CCOCC2)c2ccc(O)cc2o1 [JD013, 7-hydroxy-4-[(morpholin-4-yl)methyl]-2H-1-benzopyran-2-one] | altered PNN expression | increased solubility
